Measured values published in ChEMBL document CHEMBL1201862, “PubChem BioAssay data set” (2004).
Activity calls are given as the source filed them. For most assays here, no stated cut-off is given here; in the data, actives have a measured EC50 and inactives only a lower limit.

system: not listed separately; assay: Luminescence Cell-Based Dose Retest to Confirm Inhibitors of Cancer Stem Cells. [Related pubchem assays (depositor defined):AID2717, AID2721]; assay type: functional; conditions: Homo sapiens

SMILES	AC50
O=C(NC(=S)Nc1cccc(Cl)c1N1CCCCC1)c1ccc2c(c1)OCCO2	0.707 µM (active)
O=S(=O)(Nc1ccc(O)c(Sc2nc3ccccc3s2)c1)c1cccc2ccccc12	6.45 µM (active)
CC(C)Cc1nc2oc3c(Cl)ncnc3c2c2c1CCCC2	3.3 µM (active)
NC(=O)c1cc([N+](=O)[O-])ccc1NCc1ccc(O)cc1	2.92 µM (active)
Cc1ccn2c(NCc3ccccc3)c(-c3cccc(SC4CCCCC4)c3)nc2c1	4.44 µM (active)
C/C(=N\Nc1cc(C(F)(F)F)ccc1Cl)c1ccccc1O	83.1 µM (active)

system: not listed separately; assay: NIH3T3 cell viability loss – ATP luminescence, mouse fibroblasts, counter-screen, dose response (AID 2010); assay type: functional, cell-based; conditions: not given;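 further: cells exposed to compound for about 90 hours before reading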

SMILES	EC50
Nc1c(C(=O)c2ccccc2)sc(Nc2ccccc2)c1S(=O)(=O)c1ccccc1	> 60 µM (not active)
c1ccc(-c2nc(N3CCN(c4ccccc4)CC3)nc(-n3ccnc3)n2)cc1	> 60 µM (not active)
CC(C)(C)c1ccc(NC(=O)Cn2cnc3cc([N+](=O)[O-])ccc3c2=O)cc1	22.1 µM (active)
Cc1ccc(-n2cc(CN3CCC(CO)(Cc4cccc(C(F)(F)F)c4)CC3)cn2)cc1	> 60 µM (not active)
Cc1ccc(-c2nnn(CC(=O)N3c4ccccc4CCc4ccccc43)n2)cc1	> 60 µM (not active)
CCOc1ccc(CN2CCN(Cc3cccc4c3OCO4)CC2CCO)cc1 (stereo not given)	> 60 µM (not active)
Cc1ccc(C)c(S(=O)(=O)N2CCN(CC(=O)NC(=O)NCc3ccccc3)CC2)c1	> 60 µM (not active)
Cc1ccc(C(c2nnnn2Cc2ccccc2)N2CC=C(c3ccc(F)cc3)CC2)cc1 (stereo not given)	20.8 µM (active)
Cc1ccc(CN2CCC(Oc3cccc(C(=O)N(C)CCN(C)C)c3)CC2)cc1C	26 µM (active)
Cc1cnccc1CN(C)Cc1cn(C)nc1-c1ccc(Oc2ccccc2)cc1	> 30 µM (not active)
CCOC(=O)c1c(-c2cccs2)csc1NC(=O)c1ccncc1	> 30 µM (not active)
COc1ccc(OC)c(C2C=C(C34CC5CC(CC(C5)C3)C4)N=C(S)N2)c1 (stereo not given)	> 30 µM (not active)
COc1cccc(CC2(CO)CCCN(Cc3sc(N4CCCC4)nc3Cl)C2)c1 (stereo not given)	> 30 µM (not active)

system: Streptococcus sp. 'group A'; assay: Streptococcus pyogenes SK(-)GAS viability under kanamycin – luminescence, BacTiterGlo, confirmation, counter-screen for streptokinase expression inhibitor project, dose response (AID 1900); assay type: functional, organism-based; conditions: not given

SMILES	EC50
O=C(NC(=S)Nc1cccc(Cl)c1N1CCCCC1)c1ccc2c(c1)OCCO2	80.4 µM (active)
Cc1cccc(OCC(=O)Nc2ccccc2N2CCCCC2)c1C	9.25 µM (active)
CC12CCC(C(=O)NNC(=O)c3ccccc3)(OC1=O)C2(C)C (stereo not given)	> 150 µM (not active)
O=S(=O)(Nc1ccc(O)c(Sc2nc3ccccc3s2)c1)c1cccc2ccccc12	4.05 µM (active)
CS(=O)(=O)c1ccc2nc(NC(=O)c3ccc(NS(=O)(=O)c4ccc(F)c(F)c4)cc3)sc2c1	0.318 µM (active)
Cc1ccc(NC(S)=NN=C(S)Nc2cccc(C(F)(F)F)c2)cc1	5.24 µM (active)
O=C(COC(=O)c1ccccc1Br)Nc1nnc(-c2ccccc2)o1	0.834 µM (active)
Cc1c(C(=O)NN=C(S)NCc2ccc(Cl)cc2)oc2ccccc12	7.12 µM (active)
Nc1nc(Nc2cccc(Cl)c2)nc(NCc2ccco2)c1[N+](=O)[O-]	7.28 µM (active)
Cc1ccc2nc(-c3ccc(NC(=O)CNC4CC4)cc3)sc2c1	14.4 µM (active)
COc1ccc(S(=O)(=O)N[C@@H](C)C(=O)OCC(=O)Nc2cc3oc4ccccc4c3cc2OC)cc1	1.39 µM (active)
CCOC(=O)c1c(NC(=O)c2cccs2)sc2c1CCN(C(=O)OCC)C2	12 µM (active)
COc1ccc(OC)c(C2C=C(C34CC5CC(CC(C5)C3)C4)N=C(S)N2)c1 (stereo not given)	11.2 µM (active)

system: not listed separately; assay: Trypanosoma cruzi growth suppression in host cells – NIH3T3 host cells, beta-gal luminescence, confirmation (AID 2044); assay type: functional, cell-based; conditions: not given;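 further: intracellular parasites grown in NIH/3T3 mouse fibroblasts as host cells; luminescent beta-galactosidase reporter signal from transgenic T. cruzi replicating inside host cells; inhibitors lower the luminescence signal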

SMILES	EC50
Nc1c(C(=O)c2ccccc2)sc(Nc2ccccc2)c1S(=O)(=O)c1ccccc1	1.47 µM (active)
c1ccc(-c2nc(N3CCN(c4ccccc4)CC3)nc(-n3ccnc3)n2)cc1	3.53 µM (active)
CC(C)(C)c1ccc(NC(=O)Cn2cnc3cc([N+](=O)[O-])ccc3c2=O)cc1	1 µM (active)
Cc1ccc(-n2cc(CN3CCC(CO)(Cc4cccc(C(F)(F)F)c4)CC3)cn2)cc1	0.896 µM (active)
Cc1ccc(-c2nnn(CC(=O)N3c4ccccc4CCc4ccccc43)n2)cc1	3.26 µM (active)
CCOc1ccc(CN2CCN(Cc3cccc4c3OCO4)CC2CCO)cc1 (stereo not given)	0.208 µM (active)
Cc1ccc(C)c(S(=O)(=O)N2CCN(CC(=O)NC(=O)NCc3ccccc3)CC2)c1	0.72 µM (active)
Cc1ccc(C(c2nnnn2Cc2ccccc2)N2CC=C(c3ccc(F)cc3)CC2)cc1 (stereo not given)	1.95 µM (active)
Cc1ccc(CN2CCC(Oc3cccc(C(=O)N(C)CCN(C)C)c3)CC2)cc1C	< 0.1 µM (active)
Cc1cnccc1CN(C)Cc1cn(C)nc1-c1ccc(Oc2ccccc2)cc1	1.76 µM (active)
CCOC(=O)c1c(-c2cccs2)csc1NC(=O)c1ccncc1	2.14 µM (active)
COc1ccc(OC)c(C2C=C(C34CC5CC(CC(C5)C3)C4)N=C(S)N2)c1 (stereo not given)	1.15 µM (active)
COc1cccc(CC2(CO)CCCN(Cc3sc(N4CCCC4)nc3Cl)C2)c1 (stereo not given)	1.74 µM (active)

target: T1, Streptokinase A (Streptococcus pyogenes serotype M1, UniProt P10520); assay: viability-normalized secreted streptokinase activity reduction – plasminogen activation absorbance, OD405, dose response (AID 1914); assay type: functional, Streptococcus pyogenes M1 GAS; conditions: not given;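 further: secreted streptokinase activity via plasminogen activation per viability signal from cell pellet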
T1 sequence (P10520 whole entry): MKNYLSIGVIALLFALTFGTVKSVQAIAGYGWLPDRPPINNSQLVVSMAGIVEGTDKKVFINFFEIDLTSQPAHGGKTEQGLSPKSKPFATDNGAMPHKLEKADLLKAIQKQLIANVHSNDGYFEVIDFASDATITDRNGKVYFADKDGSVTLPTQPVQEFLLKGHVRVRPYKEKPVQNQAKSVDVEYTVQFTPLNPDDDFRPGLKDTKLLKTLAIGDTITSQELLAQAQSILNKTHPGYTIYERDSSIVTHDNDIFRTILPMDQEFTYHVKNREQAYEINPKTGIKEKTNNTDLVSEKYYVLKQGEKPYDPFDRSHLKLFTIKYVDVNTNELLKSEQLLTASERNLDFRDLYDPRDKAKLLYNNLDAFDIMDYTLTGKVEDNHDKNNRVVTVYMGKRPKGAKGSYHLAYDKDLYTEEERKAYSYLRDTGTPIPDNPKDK

SMILES	EC50
O=C(NC(=S)Nc1cccc(Cl)c1N1CCCCC1)c1ccc2c(c1)OCCO2	48 µM (active)
Cc1cccc(OCC(=O)Nc2ccccc2N2CCCCC2)c1C	5.39 µM (active)
CC12CCC(C(=O)NNC(=O)c3ccccc3)(OC1=O)C2(C)C (stereo not given)	> 150 µM (not active)
O=S(=O)(Nc1ccc(O)c(Sc2nc3ccccc3s2)c1)c1cccc2ccccc12	> 150 µM (not active)
Cc1ccc(NC(S)=NN=C(S)Nc2cccc(C(F)(F)F)c2)cc1	> 150 µM (not active)
O=C(COC(=O)c1ccccc1Br)Nc1nnc(-c2ccccc2)o1	> 150 µM (not active)
Cc1c(C(=O)NNC(=S)NCc2ccc(Cl)cc2)oc2ccccc12	22.5 µM (active)
Nc1nc(Nc2cccc(Cl)c2)nc(NCc2ccco2)c1[N+](=O)[O-]	> 150 µM (not active)
Cc1ccc2nc(-c3ccc(NC(=O)CNC4CC4)cc3)sc2c1	> 150 µM (not active)
COc1ccc(S(=O)(=O)N[C@@H](C)C(=O)OCC(=O)Nc2cc3oc4ccccc4c3cc2OC)cc1	> 150 µM (not active)
COc1ccc(OC)c(C2C=C(C34CC5CC(CC(C5)C3)C4)N=C(S)N2)c1 (stereo not given)	14.7 µM (active)

target: T2, Rac GTPase-activating protein 1 (Homo sapiens, UniProt Q9H0H5); assay: blockers of MgcRacGAP-driven Rac1 GTP hydrolysis – biochemical, ADP Hunter fluorescence, primary and confirmatory, confirmation (AID 624330); assay type: functional; conditions: not given
T2 sequence (Q9H0H5 whole entry): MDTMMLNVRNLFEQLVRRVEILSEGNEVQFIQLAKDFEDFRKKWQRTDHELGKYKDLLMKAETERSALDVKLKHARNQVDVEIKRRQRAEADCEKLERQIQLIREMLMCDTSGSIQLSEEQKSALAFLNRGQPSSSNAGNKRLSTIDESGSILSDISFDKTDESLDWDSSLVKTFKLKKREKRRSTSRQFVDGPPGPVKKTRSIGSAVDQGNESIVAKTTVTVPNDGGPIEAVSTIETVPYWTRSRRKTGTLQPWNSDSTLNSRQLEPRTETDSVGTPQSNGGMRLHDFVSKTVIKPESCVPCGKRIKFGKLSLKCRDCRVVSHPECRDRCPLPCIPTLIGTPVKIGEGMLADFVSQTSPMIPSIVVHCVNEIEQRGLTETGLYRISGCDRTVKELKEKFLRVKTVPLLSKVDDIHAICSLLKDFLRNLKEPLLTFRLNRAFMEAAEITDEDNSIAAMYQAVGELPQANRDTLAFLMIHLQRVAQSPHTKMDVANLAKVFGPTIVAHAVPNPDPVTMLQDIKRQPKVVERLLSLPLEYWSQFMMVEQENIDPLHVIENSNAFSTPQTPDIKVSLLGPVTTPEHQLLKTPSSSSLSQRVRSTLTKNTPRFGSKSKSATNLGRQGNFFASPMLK

SMILES	IC50
CCOc1cccc2cc(C(=O)Oc3ccc(OC)cc3)c(=O)oc12	52.5 µM (active)
CCOc1cc(/C=C2\SC(N)=NC2=O)ccc1O	47 µM (active)
COc1ccccc1OCC#CCN1CCCC(C)C1 (stereo not given)	182 µM (active)
Cc1cc(C)cc(NC(=O)C(NCCN2CCOCC2)c2ccccc2)c1 (stereo not given)	48.4 µM (active)
Cc1cccc(C)c1OCCCCN1CCNCC1	122 µM (active)
C=CCc1cc(Cl)ccc1OCCn1ccnc1	139 µM (active)
COc1cc2c(cc1OC)C1(CCCC1)C(N)=C2C#N	38 µM (active)
CC(=O)c1c(Nc2ccc3c(c2)OCCO3)oc(C)cc1=O	54 µM (active)
COc1ccc(N2CCN(C(C)C(=O)N3CCCC3)CC2)cc1 (stereo not given)	72.4 µM (active)
C/C(=N\Nc1nc2ccccc2[nH]1)c1ccc(Cl)s1	42 µM (active)
O=C(NN=Cc1ccc(O)cc1)c1ccccc1NS(=O)(=O)c1cccs1	74.4 µM (active)
C=CCc1cc(/C=N/c2ccc(N3CCOCC3)cc2)cc(OCC)c1O	13.1 µM (active)

target: Paired box protein Pax-8 (Homo sapiens, UniProt Q06710); assay: PAX8 transcriptional activity inhibition in RMG-I – RMG-I cells, luciferase, cherry-pick, dose response (AID 687027); assay type: functional, cell-based; conditions: not given;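 further: luciferase reporter driven by Pax8 target thyroperoxidase promoter measured by SteadyGlo luminescence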
Sequence (Q06710 whole entry): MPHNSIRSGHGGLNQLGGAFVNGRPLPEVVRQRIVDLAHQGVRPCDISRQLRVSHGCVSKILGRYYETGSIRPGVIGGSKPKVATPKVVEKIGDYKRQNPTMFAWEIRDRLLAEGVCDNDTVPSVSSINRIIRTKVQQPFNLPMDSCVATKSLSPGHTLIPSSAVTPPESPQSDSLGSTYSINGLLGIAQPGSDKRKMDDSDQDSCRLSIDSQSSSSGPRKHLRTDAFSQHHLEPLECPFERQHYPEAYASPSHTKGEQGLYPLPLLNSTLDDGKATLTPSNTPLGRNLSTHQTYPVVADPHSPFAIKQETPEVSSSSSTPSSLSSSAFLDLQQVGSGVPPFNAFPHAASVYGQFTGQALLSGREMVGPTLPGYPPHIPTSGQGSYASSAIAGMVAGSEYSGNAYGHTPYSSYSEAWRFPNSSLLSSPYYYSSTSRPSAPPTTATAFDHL

SMILES	AC50
C[C@@H]1CCCCO[C@H](CN(C)C(=O)NC2CCCCC2)[C@@H](C)CN([C@@H](C)CO)C(=O)c2cc(NC(=O)Nc3ccc(C(F)(F)F)cc3)ccc2O1	4.98 µM (active)
C[C@@H]1CCCCO[C@@H](CN(C)Cc2ccc(Cl)c(Cl)c2)[C@H](C)CN([C@H](C)CO)C(=O)c2cc(NS(=O)(=O)c3ccccc3)ccc2O1	7.95 µM (active)
COc1ccc(S(=O)(=O)N2CCCCN3[C@H](C2)[C@H](c2ccc(C#CC(C)C)cc2)[C@@H]3CO)cc1	9.44 µM (active)
C[C@@H]1CN([C@@H](C)CO)C(=O)c2cc(N(C)C)ccc2O[C@@H]1CN(C)Cc1ccc(Oc2ccccc2)cc1	19.1 µM (active)
C[C@@H]1CCCCO[C@H](CN(C)Cc2ccc(C(F)(F)F)cc2)[C@H](C)CN([C@H](C)CO)C(=O)c2cc(NS(=O)(=O)c3cccs3)ccc2O1	11.5 µM (active)

system: Streptococcus; assay: GAS UMAA2166 growth inhibition – luminescence, BacTiterGlo, counter-screen for streptokinase expression inhibitor project, dose response (AID 1915); assay type: functional, organism-based; conditions: not given;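 further: potency for reduction of bacterial viability or growth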

SMILES	EC50
O=C(NC(=S)Nc1cccc(Cl)c1N1CCCCC1)c1ccc2c(c1)OCCO2	> 150 µM (not active)
Cc1cccc(OCC(=O)Nc2ccccc2N2CCCCC2)c1C	13.4 µM (active)
CC12CCC(C(=O)NNC(=O)c3ccccc3)(OC1=O)C2(C)C (stereo not given)	> 150 µM (not active)
O=S(=O)(Nc1ccc(O)c(Sc2nc3ccccc3s2)c1)c1cccc2ccccc12	7.08 µM (active)
CS(=O)(=O)c1ccc2nc(NC(=O)c3ccc(NS(=O)(=O)c4ccc(F)c(F)c4)cc3)sc2c1	5.61 µM (active)
Cc1ccc(NC(S)=NN=C(S)Nc2cccc(C(F)(F)F)c2)cc1	110 µM (active)
O=C(COC(=O)c1ccccc1Br)Nc1nnc(-c2ccccc2)o1	19.2 µM (active)
Cc1c(C(=O)NN=C(S)NCc2ccc(Cl)cc2)oc2ccccc12	> 150 µM (not active)
Nc1nc(Nc2cccc(Cl)c2)nc(NCc2ccco2)c1[N+](=O)[O-]	16.4 µM (active)
Cc1ccc2nc(-c3ccc(NC(=O)CNC4CC4)cc3)sc2c1	> 150 µM (not active)
COc1ccc(S(=O)(=O)N[C@@H](C)C(=O)OCC(=O)Nc2cc3oc4ccccc4c3cc2OC)cc1	16.4 µM (active)
COc1ccc(OC)c(C2C=C(C34CC5CC(CC(C5)C3)C4)N=C(S)N2)c1 (stereo not given)	> 150 µM (not active)
